Reference: article PMC7423395, “Male-predominant galanin mediates androgen-dependent aggressive chases in medaka” (eLife, 2020)

Legend:
Assay type in all cases: in vivo, medaka (Oryzias latipes)
[1] = system: gal-expressing neurons in brain nuclei; assay: Number of gal-expressing neurons by in situ hybridization in gonadectomized, sex steroid-treated fish; details: 100 ng/ml by immersion for 6 days, n = 5 per group; for ovariectomy-induced increase in the number of gal-expressing neurons in pPMp, effect of steroid treatment: ovariectomized adult females
Excerpt: For both male and female fish, the gonad was removed under tricaine methane sulfonate anesthesia (0.02%) (Sigma-Aldrich, St. Louis, MO) through a small incision made in the ventrolateral abdominal wall. Immediately after removal of the gonad, the incision was sutured with nylon thread. Sham-operated fish received the same surgical treatment as gonadectomized fish, except for removal of the gonad. After a recovery period of 3 days in saline (0.9% (w/v) NaCl), gonadectomized fish were immersed in water containing 100 ng/ml of KT (Cosmo Bio, Tokyo, Japan) or E2 (Fujifilm Wako Pure Chemical Corporation), or vehicle (ethanol) alone for 6 days and then sampled. Sham-operated fish were treated with vehicle alone and used as controls. In another experiment, females of gal knockout lines with intact ovaries were treated with 100 ng/ml of KT by immersion in water for 10 days and then sampled. The sex steroid concentration used was based on previously reported serum steroid levels in medaka ([Foran et al., 2002]; [Foran et al., 2004]; [Tilton et al., 2003]).
The procedure for single-label in situ hybridization has been described previously ([Hiraki et al., 2012]). In brief, whole brains were fixed in 4% paraformaldehyde (PFA) and embedded in paraffin. Serial coronal sections of 10 μm thickness were cut and hybridized with the DIG-labeled galr1 or galr2 probe or the same DIG-labeled gal probe used for Northern blot analysis. Hybridization signals were visualized by using alkaline phosphatase-conjugated anti-DIG antibody and 5-bromo-4-chloro-3-indolyl phosphate/nitro blue tetrazolium (BCIP/NBT) substrate (Roche Diagnostics). Color development was allowed to proceed for more than 5 hr, or was stopped after 15 min (for quantification of gal expression in males that were castrated and treated with sex steroids) or 1 hr (for quantification of gal expression in females that were ovariectomized and treated with sex steroids) to avoid saturation. All sections in each comparison were processed simultaneously under the same conditions. For galr1, for which hybridization signals were detected throughout the brain and thus the specificity of the staining was somewhat uncertain, in situ hybridization was also performed using a sense probe under conditions identical to those used for the antisense probe. No signal was obtained by the sense probe, confirming that the signals obtained by the antisense probe represented specific staining.
To obtain quantitative data, the number of gal-expressing neurons in each brain nucleus was counted manually. […] In this case, the total number of the neurons in the nuclei was counted. Only intensively labeled neurons with a clearly defined cell body were counted to reduce, if not eliminate, the likelihood of double counting of the neurons split between sections. […]

adult female medaka = assay: Aggressive behavior test of KT-treated females; details: 100 ng/ml KT by immersion for 10 days, main effect of androgen treatment
Excerpt: (§1) For both male and female fish, the gonad was removed under tricaine methane sulfonate anesthesia (0.02%) (Sigma-Aldrich, St. Louis, MO) through a small incision made in the ventrolateral abdominal wall. Immediately after removal of the gonad, the incision was sutured with nylon thread. Sham-operated fish received the same surgical treatment as gonadectomized fish, except for removal of the gonad. After a recovery period of 3 days in saline (0.9% (w/v) NaCl), gonadectomized fish were immersed in water containing 100 ng/ml of KT (Cosmo Bio, Tokyo, Japan) or E2 (Fujifilm Wako Pure Chemical Corporation), or vehicle (ethanol) alone for 6 days and then sampled. […]
All behavioral procedures were conducted in 2-l rectangular tanks contained within a large recirculating water system with a constant influx of dechlorinated tap water. […] The partitions were then removed, and the fish were allowed to interact for 20 min while their behavior was recorded as described above. […]
In each test, wild-type, heterozygous, and homozygous siblings reared under the same conditions were used as the comparison group. The total number of each aggressive act (chase, fin display, circle, strike, and bite) performed by the four fish in the tank was counted manually from the video recordings. In addition, the total number of chases by the four fish in the tank was calculated for each 5 min interval during the test period. […]

[2] = system: gal expression in the whole brain; assay: Whole-brain gal expression by real-time PCR in gonadectomized, sex steroid-treated fish; details: castrated adult males, 100 ng/ml by immersion in water for 6 days, normalized to actb, versus castrated vehicle
Excerpt: as §1, with “sampled. Sham-operated fish were treated with vehicle alone and used as controls.” for “sampled.”
In cases where there were fewer than seven data points per experimental group, individual data points were plotted with the mean ± standard error of the mean (SEM); in cases where there were seven or more data points per experimental group, data were plotted as box and whisker plots by the Tukey method for clarity. In real-time PCR analysis, the expression level of gal (normalized to that of actb) in female whole brain was arbitrarily set to 1, and the relative difference was calculated in each data set to facilitate comparisons among data sets.

Structure (SMILES) | number of gal-expressing neurons in aPMp/pPPa ([1]; castrated adult males) | ovariectomy-induced increase in the number of gal-expressing neurons in pPMp, effect of steroid treatment [1] | number of bites (adult female medaka; adult females of gal knockout lines Δ2 and Δ10, 20 min test) | number of chases (adult female medaka; adult females of gal knockout lines Δ2 and Δ10 with intact ovaries, four fish per tank, 20 min, n = 6 per group) | level of brain gal expression reduced by castration, effect of steroid treatment [2] | number of gal-expressing neurons in pPMp reduced by castration, effect of steroid treatment ([1]; castrated adult males)
C[C@]12CC[C@@H]3c4ccc(O)cc4CC[C@H]3[C@@H]1CC[C@@H]2O [E2, estradiol-17β] | increased | significantly attenuated |  |  |  | 
C[C@]12CC(=O)[C@H]3[C@@H](CCC4=CC(=O)CC[C@@]43C)[C@@H]1CC[C@@H]2O [KT, 11-ketotestosterone] |  | further enhanced | significantly increased | significantly increased | restored by treatment with KT | restored by KT treatment
